The text below walks through data of patent publication US20250122242A1, “SELECTION SYSTEMS, PEPTIDES DETERMINED THEREWITH, AND METHODS OF USING SAME” (Wisconsin Alumni Research Foundation, priority 2023, published 2025).

Sequence of hIAPP-T7n (P10997+P00573 fused): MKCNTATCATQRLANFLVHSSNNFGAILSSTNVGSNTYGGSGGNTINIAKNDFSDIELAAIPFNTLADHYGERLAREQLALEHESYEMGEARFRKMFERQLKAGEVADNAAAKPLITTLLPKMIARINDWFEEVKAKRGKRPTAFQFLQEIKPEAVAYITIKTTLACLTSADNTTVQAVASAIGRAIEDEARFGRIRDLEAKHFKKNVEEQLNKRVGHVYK

One assay concerns the target hIAPP-T7n (UniProt P00573+P10997).
Experiment: not given
To be noted: positive selection on hIAPP, high-throughput sequencing. The source says:
Next, we examined if our system could discover inhibitors of other disease-associated APPs. We targeted human islet amyloid polypeptide (hIAPP), which forms amyloid deposits in patients with type-2 diabetes that are hypothesized to contribute to […] dysfunction.^40 To create a selection for hIAPP aggregation inhibitors, we simply cloned hIAPP in place of Aβ42 in our selection circuit (FIG. 2B). We used an SP-encoded CZ6 SICLOPPS library (Z=NDT codon encoded amino acid: R, N, D, C, G, H, I, L, F, S, Y, or V) (˜3×10^6 total sequences). This codon set was chosen to reduce the theoretical library size and facilitate library cloning. The library (total of ˜5×10^6 transformants) was cloned on a SP obtained from an additional 250 hours of PACE using a more stringent selection (FIGS. 10A-10D).
We performed five rounds of selection, diluting the SP pool by ten-fold each round (FIG. 4A). […] To verify that we selected phage with higher activity, we measured the propagation of the SP from each round on hIAPP selection cells, normalizing input phage titers to […] to enable head-to-head comparison between phage pools.
(§1) Single colonies of host cells transformed with the appropriate selection plasmids were used to make overnight cultures in 2×YT with maintenance antibiotics. The overnight culture was diluted (1:100) into 4-5 mL DRM with maintenance antibiotics and incubated at 37° C. with shaking until the OD600 of the culture reached ˜0.5, upon which the expanded phage library was added at a titer of 1×10^6 pfu/mL. The culture was incubated at 37° C. with shaking overnight (13-18 h). The next day, the culture was centrifuged at 8,000 rcf for 2 min to obtain the supernatant containing phage. The collected phage was diluted into fresh host cell cultures (10 to 1,000-fold) for the next round of selection, while the rest was stored at 4° C. for downstream analysis. This process was repeated until a significant increase in phage propagation was observed compared with the parent library. Both positive and negative selection rounds were performed using this procedure.
(§2) Sample preparation. Phage stocks collected from the final rounds of library selection were first amplified using LY0145 and LY0146. The PCR product was purified, and adapters added using LY0147 and LY0148. The resulting PCR product was purified and barcoded through a final PCR using index primers to add unique indices for shared Illumina NovaSeq sequencing. The final PCR product was purified, and the concentration measured by Nanodrop. Further sample quality control was performed by the University of Wisconsin-Madison Biotechnology Center (UWBC).
(§3) High-throughput sequencing and data analysis. High-throughput sequencing was performed by UWBC using a shared sequencing service on the NovaSeq 6000 platform. Sequencing reads were demultiplexed by UWBC and analyzed using custom-written Python scripts.
For CVSYILL, the “Percent total reads (positive selection)” value worked out at 0.11%.

As for CFFRGSD, the “Percent total reads (positive selection)” value came to 0.06%.

As for CIYFHHH, the “Percent total reads (positive selection)” value amounted to 0.12%.

With CISCHYG, the “Percent total reads (positive selection)” value is on record as 0.13%.

CFNLVVD: the “Percent total reads (positive selection)” value is 0.08%.

CCHSFFR: the “Percent total reads (positive selection)” value stood at 0.29%.

Take CGLGHGN: the “Percent total reads (positive selection)” value stood at 0.009%.

Take CYILSIG: the “Percent total reads (positive selection)” value was 0.34%.

On to CLNYFHG, for which the “Percent total reads (positive selection)” value stood at 0.35%.

For the substance CGIRSLG, the “Percent total reads (positive selection)” value was 0.22%.

In the case of CCGLYNI, the “Percent total reads (positive selection)” value was 0.31%.

For the substance CNRLDVS, the “Percent total reads (positive selection)” value is reported as 0.02%.

As for CHVHSYL, the “Percent total reads (positive selection)” value was 1.82%.

Staying with this assay, now noted: top enriched sequences, positive selection on hIAPP, high-throughput sequencing.
Regarding CVSYILL, the “Rank (positive selection)” value amounted to 10.

Take CFFRGSD: the “Rank (positive selection)” value is reported as 18.

As for CIYFHHH, the “Rank (positive selection)” value was found to be 9.

In the case of CISCHYG, the “Rank (positive selection)” value is given as 8.

On to CFNLVVD, for which the “Rank (positive selection)” value came to 15.

On to CCHSFFR, for which the “Rank (positive selection)” value is reported as 6.

As for CGLGHGN, the “Rank (positive selection)” value was found to be 53.

As for CYILSIG, the “Rank (positive selection)” value amounted to 4.

For CLNYFHG, the “Rank (positive selection)” value was found to be 3.

CGIRSLG: the “Rank (positive selection)” value came out at 7.

As for CCGLYNI, the “Rank (positive selection)” value amounted to 5.

In the case of CNRLDVS, the “Rank (positive selection)” value is 26.

On to CHVHSYL, for which the “Rank (positive selection)” value came to 2.

The target of the next assay is Aβ42-T7n (UniProt P00573+P05067).
Sequence of Aβ42-T7n (P05067+P00573 fused): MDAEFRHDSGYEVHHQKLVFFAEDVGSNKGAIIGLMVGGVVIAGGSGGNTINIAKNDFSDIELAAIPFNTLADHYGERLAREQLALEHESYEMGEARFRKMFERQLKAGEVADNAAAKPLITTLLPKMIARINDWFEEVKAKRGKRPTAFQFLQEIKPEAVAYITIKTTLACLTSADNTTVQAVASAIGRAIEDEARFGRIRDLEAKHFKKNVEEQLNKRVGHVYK
Experiment: not given
Particulars: percent reads negative vs. positive selection.
From the text: To create a negative selection, we placed gIII-neg, a dominant-negative form of gIII,^44 under PT7 in our selection circuit. Inhibition of a non-target APP (ex. Aβ42) triggers pIII-neg expression and poisons phage proliferation. A second plasmid produces small amounts of pIII from the phage shock promoter (FIG. 16A). All SPs infecting cells encoding this negative selection receive sufficient pIII to propagate. However, SP that carry a promiscuous or false positive cyclic peptide will also produce pIII-neg and generate non-infectious progeny (FIGS. 16B and 16C). We subjected the hIAPP round 5 phage population to four rounds of negative selection, diluting the phage by 100-fold each round (FIG. 5B).
as §1, §2, §3
With CVSYILL, the “Fold enrichment in negative vs. positive selection” value is listed as 4.21.

For CFFRGSD, the “Fold enrichment in negative vs. positive selection” value is reported as 81.53.

Turning to CIYFHHH, the “Fold enrichment in negative vs. positive selection” value was 28.44.

On to CISCHYG, for which the “Fold enrichment in negative vs. positive selection” value stood at 0.92.

As to CFNLVVD, the “Fold enrichment in negative vs. positive selection” value is reported as 64.65.

CCHSFFR: the “Fold enrichment in negative vs. positive selection” value was found to be 2.87.

Regarding CGLGHGN, the “Fold enrichment in negative vs. positive selection” value worked out at 124.22.

Turning to CYILSIG, the “Fold enrichment in negative vs. positive selection” value is listed as 1.10.

Take CLNYFHG: the “Fold enrichment in negative vs. positive selection” value is listed as 20.08.

On to CGIRSLG, for which the “Fold enrichment in negative vs. positive selection” value was found to be 20.09.

In the case of CCGLYNI, the “Fold enrichment in negative vs. positive selection” value was 0.48.

Take CNRLDVS: the “Fold enrichment in negative vs. positive selection” value was 83.68.

CHVHSYL: the “Fold enrichment in negative vs. positive selection” value worked out at 3.31.

The assay is the same for the next values; noted with them: subsequent negative selection against Aβ42, high-throughput sequencing.
In the case of CVSYILL, the “Percent total reads (negative selection)” value is reported as 0.45% and the “Rank (negative selection)” value turned out to be 16.

CFFRGSD: the “Percent total reads (negative selection)” value is recorded as 4.73% and the “Rank (negative selection)” value amounted to 6.

Turning to CIYFHHH, the “Percent total reads (negative selection)” value turned out to be 3.33% and the “Rank (negative selection)” value is 8.

For the substance CISCHYG, the “Percent total reads (negative selection)” value came out at 0.12% and the “Rank (negative selection)” value is 34.

As to CFNLVVD, the “Percent total reads (negative selection)” value is reported as 4.85% and the “Rank (negative selection)” value is reported as 5.

In the case of CCHSFFR, the “Percent total reads (negative selection)” value came to 0.83% and the “Rank (negative selection)” value worked out at 12.

For CGLGHGN, the “Percent total reads (negative selection)” value is 1.12% and the “Rank (negative selection)” value amounted to 10.

Regarding CYILSIG, the “Percent total reads (negative selection)” value is listed as 0.37% and the “Rank (negative selection)” value stood at 18.

In the case of CLNYFHG, the “Percent total reads (negative selection)” value is 7.05% and the “Rank (negative selection)” value is listed as 3.

For CGIRSLG, the “Percent total reads (negative selection)” value was found to be 4.48% and the “Rank (negative selection)” value was 7.

Take CCGLYNI: the “Percent total reads (negative selection)” value is 0.15% and the “Rank (negative selection)” value was 31.

Take CNRLDVS: the “Percent total reads (negative selection)” value was determined as 1.84% and the “Rank (negative selection)” value amounted to 9.

Consider CHVHSYL, for which the “Percent total reads (negative selection)” value came to 6.03% and the “Rank (negative selection)” value came out at 4.

The next assay deals with T1, hIAPP (Homo sapiens, UniProt P10997).
T1 construct: A 1 mg portion of amylin trifluoroacetate salt (Bachem) was purchased as lyophilized solid in a vial; purchased Bachem
T1 sequence (P10997 34-70 limits assumed): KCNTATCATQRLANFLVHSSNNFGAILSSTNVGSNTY
Description: ThT fluorescence assay of in vitro hIAPP aggregation. It is filed as biochemical. Particulars: chemically synthesized peptide, 10 μM hIAPP, PBS pH 6.9, 32° C., quiescent. As to the method: Preparation of ThT stock solution. To prepare a stock solution of ThT (2-3 mM), 2-4 mg of ThT was added to 3 mL PBS (pH 6.9) in a 15 mL conical tube. The solution was sonicated for 5 min and the supernatant was filtered through a 0.22 μm syringe filter into a 1.5 mL Eppendorf tube. This was the ThT stock solution to be used in following experiments. 2 mL of a 1:200 diluted ThT solution was prepared by adding 10 μL ThT stock solution into 1990 μL PBS. The absorbance of the diluted ThT solution measured at 412 nm was used to calculate the ThT stock concentration using an extinction coefficient (c) of 31600 M^−1 cm^−1.
Preparation of hIAPP stocks. A 1 mg portion of amylin trifluoroacetate salt (Bachem) was purchased as lyophilized solid in a vial. The solid was dissolved in pre-chilled 2562 μL 35 mM sodium acetate (pH 5.3) to a stock concentration of 100 μM on ice. Aliquots of hIAPP were prepared by transferring 200 μL of the 100 μM hIAPP stock solution to low-protein-binding Eppendorf tubes on ice. The aliquots were then immediately snap frozen using liquid N2, lyophilized for 24 h, and stored at −80° C. until use.
Preparation of samples for ThT assays. Using cyclic peptide stock solution (100 μM) and PBS, 400 μL aqueous solution of cyclic peptide was prepared in a low-protein-binding Eppendorf tube to achieve the desired cyclic peptide:hIAPP molar ratio (80 μM for 4:1, 40 μM for 2:1, 20 μM for 1:1, 10 μM for 0.5:1, 0 μM for 0:1). 30 μL of the solution was then loaded to wells on a black clear-bottom low-binding 96-well plate (Corning 3881) to make a triplicate for each condition. This plate loaded with aqueous solutions of cyclic peptides was then ready for adding hIAPP.
Preparation and addition of hIAPP for ThT assays. Using ThT stock solution and PBS, 1 mL ThT solution (10 μM) was prepared in a low-protein-binding Eppendorf tube and chilled on ice. 0.5 mL of the pre-chilled ThT solution was added to one aliquot of lyophilized hIAPP, which was equilibrated to room temperature before opening the tube. Pipetting up and down four times was performed to facilitate complete dissolving of hIAPP. The 0.5 mL hIAPP-containing solution was immediately transferred to the remaining 0.5 mL ThT solution on ice. Pipetting up and down four times was performed to facilitate complete mixing. The resulting 1 mL hIAPP solution, where [hIAPP]=20 μM, was immediately transferred to a 25 mL liquid reservoir. Using a multi-channel pipette, 30 μL of the hIAPP solution was quickly loaded into wells containing aqueous solutions of cyclic peptides on the 96-well plate. Final [hIAPP]=10 μM, [ThT]=5 μM.
ThT assay conditions. The plate was then quickly covered and incubated in a Tecan M Plex microplate reader under quiescent condition at 32° C. for at least 12 h. ThT fluorescence at 480 nm was measured every 5 min through the bottom of the plate using an excitation wavelength of 440 nm.
Fitting of aggregation kinetics. ThT aggregation kinetics data was fit to a sigmoidal function using GraphPad Prism and the aggregation lag time (tlag) and the apparent fibril elongation rate (kapp) calculated as described.^55
In the case of linear CRCVFSG [linear CRCVSFG], the “inhibition of hIAPP aggregation (ThT fluorescence)” value (shortened to “inhibition of hIAPP aggregation”) is on record as “moderately inhibited hNAPP aggregation”.

Consider linear CDLGVFR, for which the “inhibition of hIAPP aggregation” value was “completely inactive”.

With linear CHVVGVI [linear CHWGVI], the “inhibition of hIAPP aggregation” value is listed as “greatly reduced ability to inhibit hIAPP”.
